This is an account of results in paper PMC8951328, “New Metabolites from the Marine Sponge Scopalina hapalia Collected in Mayotte Lagoon” (Marine Drugs, 2022).

For this assay, the target named is T1, yeast proteasome (Saccharomyces cerevisiae, UniProt P30656).
T1 construct: gene PRE2; yeast proteasome (TUM Groll group); with other subunits of the yeast proteasome
T1 sequence (P30656 76-287): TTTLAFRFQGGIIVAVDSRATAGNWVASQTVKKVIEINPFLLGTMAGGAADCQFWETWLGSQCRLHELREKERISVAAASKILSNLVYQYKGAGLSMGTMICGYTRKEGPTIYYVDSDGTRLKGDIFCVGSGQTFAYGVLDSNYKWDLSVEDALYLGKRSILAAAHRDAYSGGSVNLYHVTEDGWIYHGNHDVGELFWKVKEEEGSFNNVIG
The assay can be described thus: fluorescence intensity assay with Suc-Leu-Leu-Val-Tyr-AMC substrate. Type of assay: biochemical.

The structures appear in SMILES notation.

One may read the IC50 as the point on the concentration scale where inhibition reaches its midpoint. Consider `COc1ccc(C[C@H](NC(=O)[C@H](C)NC(=O)CN2CCOCC2)C(=O)N[C@@H](Cc2ccccc2)C(=O)[C@@]2(C)CO2)cc1` [ONX-0914], for which it took 0.0366 nM to reach half-maximal inhibition (IC50).
